Reference: article PMC6491995, “Preclinical evaluation of the first intravenous small molecule MDM2 antagonist alone and in combination with temozolomide in neuroblastoma” (International Journal of Cancer, 2019)

Experiments:
NB1691 cells = system: NB1691 cells; design: method as in PMID 25844600; settings: 72 h, read-out: 72 h GI50 concentration; cited from earlier work
[1] = PK of orally formulated idasanutlin in subcutaneous NGP neuroblastoma xenograft model; assay type: in vivo; settings: single oral dose equivalent to 100 mg/kg active idasanutlin, subcutaneous NGP xenograft mice, preliminary studies
Experimental: We previously conducted similar PK/PD analyses of orally formulated idasanutlin in preliminary studies of a subcutaneous NGP neuroblastoma xenograft model after a single oral dose equivalent to 100 mg/kg of active idasanutlin (Fig. S8, Supporting Information).
Figure S8. PK and PD analysis of orally formulated idasanutlin in a TP53 wt subcutaneous xenograft model of neuroblastoma. Female CD1 nude mice were implanted subcutaneously with […] TP53 wt, MDM2 and MYCN amplified NGP neuroblastoma cells. A) PK analysis of idasanutlin levels using LC-MS in plasma samples harvested at the indicated time points from tumour bearing mice treated with a single dose equivalent to 100mg/kg of active idasanutlin by oral gavage. PD profiling for B) induction of the p53 pathway using Western analysis of p53, p21, and MDM2 levels in tumours, and C) MIC-1 levels in plasma harvested at the indicated time points from subcutaneous NGP tumour bearing mice treated with a single dose of idasanutlin by oral gavage. n=3 mice per time point. CTR, control.
(1 picture or pasted object on this page, not shown here)

[2] = system: SHSY5Y-Luc orthotopic tumours; experiment: Efficacy study in SHSY5Y-Luc orthotopic tumour bearing mice; assay type: in vivo; settings: for Reduction in bioluminescence vs. control: RO6839921 eq. 100 mg/kg IV weekly, temozolomide 34 mg/kg PO daily x5; for %ILS (Median): increase in lifespan vs. control based on median survival
Experimental: (§1) All in vivo experiments were approved by the licencing and ethical committee of the IRCCS San Martino‐IST (Genoa, Italy), the Italian Ministry of Health, Newcastle University and the UK Government Home Office. Orthotopic murine SHSY5Y‐Luc or NB1691‐Luc models were established and monitored using bioluminescence (BLI) IVIS imaging, as previously described.18, 19, 20 RO6839921 (equivalent to 100 mg/kg of active idasanutlin) and temozolomide (34 mg/kg equivalent to 100 mg/m^2 were given by IV tail vein injection and oral gavage, respectively. Tumour bearing mice were randomised into n = 3/group and n = 8/group for pharmacokinetic (PK)/pharmacodynamic (PD) studies and efficacy studies, respectively, and samples taken at the indicated time points (Supporting Information Fig. S1). To minimise esterase activity, 0.2% dichlorvos (Sigma‐Aldrich) was added to blood samples. […] Animals were monitored 2–3 times weekly and euthanized humanely just before showing signs of illness/suffering such as abdominal dilatation, paraplegia, dehydration, or severe weight loss. Percentage increase in lifespan (%ILS) was calculated based on both median and mean survival to humane endpoint, as previously described.5 For more detailed procedures see Supporting Information.
(§2) The efficacy of RO6839921 alone and in combination with temozolomide was assessed in SHSY5Y‐Luc and NB1691‐Luc orthotopic tumour bearing mice. The intermittent schedule used is equivalent to one cycle of treatment over a 3 week period (Fig. S1, Supporting Information). Mice were randomised into control, RO6839921 (once per week for 3 weeks), temozolomide (daily x5/3 weeks; consistent with the currently used clinical dosing schedule in the BEACON Trial (NCT02308527)), or RO6839921 and temozolomide treatment groups (n = 8/group; Fig. S1, Supporting Information).
(§3) Supplementary Information
(§4) Detailed methods of orthotopic in vivo experiments
(§5) Five week old female athymic Nude-Foxn1nu mice (Envigo, Bresso, Italy) were anesthetized, subjected to a laparotomy and orthotopically injected with 1×10^6 SHSY5Y-Luc or NB1691-Luc neuroblastoma cells into the capsule of the left adrenal gland, as previously described (1-3). […]
(§6) using BLI IVIS imaging for tumour development (~2-3 weeks) prior to commencement of treatment. […]
(§7) 10min and stored at -80°C. For efficacy studies, SHSY5Y-Luc or NB1691-Luc tumour bearing mice were randomized […]
(§8) temozolomide (34mg/kg, daily x5 only by oral gavage) or RO6839921 and temozolomide treatment groups with 8 mice per group (Figure S1), and monitored by IVIS imaging for tumour growth. Baseline bioluminescence were measured prior to initiation of treatment on Day 1, and then during treatment on Days 8 (BLI1) and 15 (BLI2) (Figure S1). Twenty-four hours after the end of treatment, 3 mice per group were sacrificed for PK and PD analyses, and the remaining 5 mice per group were monitored for survival to humane endpoint (Figure S1). Animals were monitored 2-3 times weekly

[3] = system: NB1691-Luc orthotopic tumours; experiment: IHC analysis of NB1691-Luc orthotopic tumours after one treatment cycle; assay type: in vivo, mice; settings: 24 h after one treatment cycle, n = 3
Experimental: Tumours were disaggregated in Phosphosafe buffer (Merck Millipore) using the Medimachine with Medicons inserts (BD Biosciences, Oxford, UK) and Western analysis carried out as previously described.21 Human MIC‐1 assays were performed according to manufacturer's protocols (R&D Systems). IHC was performed using validated protocols and the Ventana Benchmark Ultra automated system (Ventana Medical Systems, Inc, Tucson, AZ, USA) in the Cellular Pathology Department, Royal Victoria Infirmary, Newcastle upon Tyne, UK.
Figure 3 MIC‐1 levels and IHC analysis of Ki67, p53, p21, and cleaved caspase 3 (CC3) in orthotopic tumours in response to one cycle of RO6839921 and temozolomide alone and in combination. […] Statistically significant differences vs. control were determined by unpaired t‐tests. […] Graphical representation of quantification of % positive Ki67, p53, p21, and CC3 staining in (d) NB1691‐Luc and (e) SHSY5Y‐Luc orthotopic tumours using Imagescope software and algorithms (Leica Biosystems, Newcastle upon Tyne, UK) and/or scored for positive immunostaining by a consultant pathologist (KW). n = 3 mice per group. […] Statistically significant differences were determined by one‐way ANOVA with Bonferroni post‐hoc tests and paired testing vs. control. p ≤ 0.05 (*); 0.01 (**); 0.001 (***); 0.0001 (****). […]

[4] = design: method as in PMID 16047361, PMID 9744506, PMID 9738573, PMID 17114659; settings: clinical data in children; cited from earlier work
[5] = system: NB1691-Luc orthotopic tumours; experiment: Efficacy study in NB1691-Luc orthotopic tumour bearing mice; assay type: in vivo; settings: for Reduction in bioluminescence vs. control: RO6839921 eq. 100 mg/kg IV weekly, temozolomide 34 mg/kg PO daily x5; for %ILS (Median): increase in lifespan vs. control based on median survival
Experimental: as §1, §2, §3, §4, §5, §6, §7, §8

[6] = after 1 week of treatment (Day 8/BLI1)
[7] = after 2 weeks of treatment (Day 15/BLI2)
[8] = increase in lifespan vs. control based on mean survival
[9] = survival to humane endpoint, n = 5/group, one treatment cycle

Structure (SMILES) | GI50 (NB1691 cells) [µM] | Plasma concentration of active idasanutlin [1] [µg/mL] | Reduction in bioluminescence vs. control [2, 6] [%] | Reduction in bioluminescence vs. control [2, 7] [%] | %ILS (Mean) [2, 8] [%] | %ILS (Median) [2] [%] | %ILS (Median) ([2]; listed as Temozolomide) [%] | Mean Survival [2, 9] [days] | Median Survival [2, 9] [days] | Ki67 positive cells vs. control (IHC) [3] | Main toxicities in children [4] | Reduction in bioluminescence vs. control [5, 6] [%] | Reduction in bioluminescence vs. control [5, 7] [%] | %ILS (Mean) [5, 8] [%] | %ILS (Median) [5] [%] | %ILS (Median) ([5]; listed as Temozolomide) [%] | Mean Survival [5, 9] [days] | Median Survival [5, 9] [days]
COc1cc(C(=O)O)ccc1NC(=O)[C@@H]1N[C@@H](CC(C)(C)C)[C@](C#N)(c2ccc(Cl)cc2F)[C@H]1c1cccc(Cl)c1F [idasanutlin, Idasanutlin] | 0.041 | ~5 |  |  |  |  |  |  |  |  |  |  |  |  |  |  |  | 
Cn1nnc2c(C(N)=O)ncn2c1=O [temozolomide] | 868 |  | 36 | 39 | 11 | 14 | 14 | 49 | 49 | did not reduce | thrombocytopenia and neutropenia | 35 | 24 | 16 | 6 | 6 | 41 | 37
